Several values for one entry are separate records, joined by “and”; a condition that tells them apart may be missing. Equal values may be shown once. Activity calls are given as the source filed them.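 Rule for the calls: active = IC50 of 35 µM or lower, which flags the compound as cytotoxic and nonspecific; inactive = the rest.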
Tested on: Sufu-KO-LIGHT cells viability, ATP-Lite luminescence
Assay: cytotoxicity in Sufu-KO-LIGHT cells, SAR follow-up, cytotoxicity control for Gli-SUFU antagonist project, cell-based, ATP luminescence, set 1 (AID 651842)

In the case of `O=C(Nc1cc(N2CCCCC2)ncn1)c1ccccc1F`, the IC50 is reported as > 35 µM (inactive).
`O=C(Nc1cc(N2CCCCC2)ncn1)c1ccc(Br)o1` was tested, and the IC50 was > 35 µM (inactive).
In the case of `CC1CCN(c2cc(NC(=O)c3ccccc3)ncn2)CC1`, the IC50 is reported as > 35 µM (inactive).
`Cc1nc(NC(=O)c2ccccc2)cc(N2CCCCC2)n1` was tested, and the IC50 was > 35 µM (inactive).
In the case of `CN(C)c1cc(NC(=O)c2ccccc2)ncn1`, the IC50 is reported as > 35 µM (inactive).
With `COc1cccc(C(=O)Nc2cc(N3CCCCC3)ncn2)c1` the IC50 was 2.28 µM.
For `O=C(Nc1cc(N2CCCCC2)ncn1)c1ccccc1Cl`, the IC50 was > 35 µM (inactive).
`CN(C)c1cc(NC(=O)c2cccc(F)c2)ncn1` was tested, and the IC50 was > 35 µM (inactive).
With `CC(C)Nc1cc(NC(=O)c2ccccc2)ncn1` the IC50 was > 35 µM (inactive).
In the case of `O=C(Nc1cc(N2CCCC2)ncn1)c1ccccc1F`, the IC50 is reported as > 35 µM (inactive).
With `N#Cc1ccc(C(=O)Nc2cc(N3CCCCC3)ncn2)cc1` the IC50 was > 35 µM (inactive).
`O=C(Nc1cc(N2CCOCC2)ncn1)c1ccccc1` was tested, and the IC50 was > 35 µM (inactive).
With `CC(C)(C)OC(=O)N1CCN(c2cc(NC(=O)c3ccccc3)ncn2)CC1` the IC50 was 0.24 µM.
In the case of `O=C(Nc1cc(N2CCSCC2)ncn1)c1ccccc1`, the IC50 is reported as > 35 µM (inactive).
In the case of `O=C(Nc1cc(N2CCCC2)ncn1)c1cccc(F)c1`, the IC50 is reported as > 35 µM (inactive).
`CCCCN(C)c1cc(NC(=O)c2ccccc2)ncn1` gave an IC50 of 2.89 µM.
`O=C(Nc1cc(NCC2CCCO2)ncn1)c1ccccc1` (centres undefined) was tested, and the IC50 was > 35 µM (inactive).
In the case of `O=C(Nc1cc(N2CCCCC2)ncn1)c1cccs1`, the IC50 is reported as > 35 µM (inactive).
In the case of `COc1ccccc1C(=O)Nc1cc(N2CCCCC2)ncn1`, the IC50 is reported as > 35 µM (inactive).
`O=C(Nc1cc(N2CCCCC2)ncn1)c1ccco1` was tested, and the IC50 was > 35 µM (inactive).
With `CCN(CC)c1cc(NC(=O)c2ccccc2)nc(C)n1` the IC50 was > 35 µM (inactive).
With `O=C(Nc1cc(N2CCCCC2)ncn1)c1cccc2ccccc12` the IC50 was > 35 µM (inactive).
In the case of `O=C(Nc1cc(N2CCCCC2)ncn1)c1ccc2ccccc2c1`, the IC50 is reported as 2.57 µM.
In the case of `CN(C)c1cc(NC(=O)c2cccc(C#N)c2)ncn1`, the IC50 is reported as > 35 µM (inactive).
For `Cc1nc(NC(=O)c2ccccc2)cc(N(C)C)n1`, the IC50 was > 35 µM (inactive).
In the case of `COc1cc(OC)cc(C(=O)Nc2cc(N(C)C)ncn2)c1`, the IC50 is reported as > 35 µM (inactive).
For `COc1cc(OC)cc(C(=O)Nc2cc(Nc3cccc(Cl)c3)ncn2)c1`, the IC50 was > 35 µM (inactive).
For `COc1cc(OC)cc(C(=O)Nc2cc(N3CCCCC3)ncn2)c1`, the IC50 was 4.69 µM.
For `CN(C)c1cc(NC(=O)c2ccccc2F)ncn1`, the IC50 was > 35 µM (inactive).
`CC1CCCCN1c1cc(NC(=O)c2ccccc2)ncn1` (centres undefined) was tested, and the IC50 was > 35 µM (inactive).
With `O=C(Nc1cc(N2CCCC2)ncn1)c1ccccc1` the IC50 was > 35 µM (inactive).
`CC(C)(C)Nc1cc(NC(=O)c2ccccc2)ncn1` was tested, and the IC50 was > 35 µM (inactive).
`O=C(Nc1cc(N2CCCCCC2)ncn1)c1ccccc1` was tested, and the IC50 was > 35 µM (inactive).
`Cc1ccc(C(=O)Nc2cc(N3CCCCC3)ncn2)cc1` was tested, and the IC50 was 3.45 µM.
In the case of `CC(C)CNc1cc(NC(=O)c2ccccc2)ncn1`, the IC50 is reported as > 35 µM (inactive).
`CCN(CC)c1cc(NC(=O)c2cccc(F)c2)ncn1` was tested, and the IC50 was > 35 µM (inactive).
`CCC(C)Nc1cc(NC(=O)c2ccccc2)ncn1` (centres undefined) was tested, and the IC50 was > 35 µM (inactive).
`O=C(Nc1cc(N2CCCCC2)ncn1)c1cc2ccccc2s1` was tested, and the IC50 was 6.97 µM.
For `N#Cc1cccc(C(=O)Nc2cc(N3CCCCC3)ncn2)c1`, the IC50 was > 35 µM (inactive).
`CCCCNc1cc(NC(=O)c2ccccc2)ncn1` was tested, and the IC50 was > 35 µM (inactive).
For `CCN(CC)c1cc(NC(=O)c2ccccc2F)ncn1`, the IC50 was > 35 µM (inactive).
For `O=C(Nc1cc(N2CCCCC2)ncn1)c1ccccc1`, the IC50 was > 35 µM (inactive).
In the case of `O=C(Nc1cc(N2CCNCC2)ncn1)c1ccccc1`, the IC50 is reported as > 35 µM (inactive).
With `CCN(CC)c1cc(NC(=O)c2ccccc2)ncn1` the IC50 was > 35 µM (inactive).
With `CCN(CC)c1cc(NC(=O)c2ccc(Br)o2)ncn1` the IC50 was > 35 µM (inactive).
For `CC(C)CNc1cc(NC(=O)c2cccc(F)c2)ncn1`, the IC50 was > 35 µM (inactive).
For `O=C(Nc1cc(N2CCCCC2)ncn1)c1ccsc1`, the IC50 was > 35 µM (inactive).
`CCN(CC)c1cc(NC(=O)c2cccc(C#N)c2)ncn1` was tested, and the IC50 was > 35 µM (inactive).
For `COc1cc(OC)cc(C(=O)Nc2cc(N3CCCC3)ncn2)c1`, the IC50 was > 35 µM (inactive).
For `O=C(Nc1cc(N2CCCCC2)ncn1)c1ccc(Cl)cc1`, the IC50 was 1.42 µM and 0.588 µM.
`O=C(Nc1cc(N2CCCCC2)ncn1)c1cccc(F)c1` was tested, and the IC50 was > 35 µM (inactive).
With `CN1CCN(c2cc(NC(=O)c3ccccc3)ncn2)CC1` the IC50 was > 35 µM (inactive).
In the case of `Cc1nc(NC(=O)c2ccccc2)cc(N2CCCC2)n1`, the IC50 is reported as > 35 µM (inactive).
For `CCN(CC)c1cc(NC(=O)c2cc(OC)cc(OC)c2)ncn1`, the IC50 was > 35 µM (inactive).

From PubChem BioAssay AID651842 (Sanford-Burnham Center for Chemical Genomics, 2012)
